Source: PubChem BioAssay (NCI)
Where “and” joins values, the source holds several entries; their conditions need not be identical. Identical values can stand only once.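 Step 1: Grow cells in 96-well plates. Step 2: Expose to compound for 48 hours at 5 concentrations. Step 3: Interpolate endpoints linearly; if unreached, use highest concentration. GI50: concentration for 50% inhibition of growth. TGI: concentration producing complete growth inhibition.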

Assays:
Assay in all cases: NCI-60 cell line screen, 48 h
[1] = system: A498 renal
[2] = system: HCT-116 colon
[3] = system: HL-60(TB) leukemia
[4] = system: NCI-H226 lung
[5] = system: OVCAR-4 ovarian
[6] = system: SK-MEL-28 melanoma
[7] = system: SNB-19 CNS
[8] = system: SNB-75 CNS
[9] = system: SR leukemia
[10] = system: UO-31 renal

Row | Structure (SMILES) | GI50 [1] | TGI [1] | GI50 [2] | TGI [2] | GI50 [3] | TGI [3] | GI50 [4] | TGI [4] | GI50 [5] | TGI [5] | GI50 [6] | TGI [6] | GI50 [7] | TGI [7] | GI50 [8] | TGI [8] | GI50 [9] | TGI [9] | TGI [10] | GI50 [10]
1 | N/C(=N\O)c1ncc(-c2ccc(C(F)(F)F)cc2)c(NC2CCCCCC2)n1 | 1.96 µM | 15.8 µM | 3.95 µM and 1.41 µM | 11.9 µM | 2.06 µM | 5.52 µM | 4.24 µM | 26.8 µM | 2.72 µM | 15 µM | 5.38 µM | 19 µM | 3.27 µM | 13.8 µM | 5.11 µM | 20.6 µM | 4.49 µM and 1.52 µM | 6.68 µM | 10.9 µM | 
2 | CCCNc1nc(N(C)O)nc(N(C)O)n1 | 9.51 µM | > 62.6 µM | 1.63 µM | > 53.8 µM | 0.59 µM | 4.56 µM | 6.49 µM | > 93.6 µM | 2.48 µM | > 100 µM | 2.64 µM | > 91 µM | 4.07 µM | > 100 µM | 16.4 µM | > 75.3 µM | 0.149 µM | > 30.1 µM | > 40.8 µM | 0.981 µM
3 | N#Cc1ccc(Oc2nccc(-c3c(-c4ccc(F)cc4)ncn3C3CCNCC3)n2)cc1 | > 25 µM | > 25 µM | 5.45 µM | > 13.5 µM | > 25 µM | > 25 µM | > 25 µM | > 25 µM | > 25 µM | > 25 µM | > 25 µM | > 25 µM | > 25 µM | > 25 µM | > 16 µM | > 25 µM | 4.54 µM | 11.3 µM | > 25 µM | 11.9 µM
4 | COc1c(OC(C)=O)cc2c(OC(C)=O)c1CC(C)CC(OC)C(O)C(C)/C=C(\C)C(OC(N)=O)C(OC)/C=C\C=C(/C)C(=O)N2 (stereo unspecified) |  | > 100 µM |  | > 100 µM |  | > 67.5 µM |  | > 100 µM |  | > 100 µM |  | > 100 µM |  | > 100 µM |  | > 100 µM |  | > 72.6 µM | > 100 µM | 
5 | COc1ccc(CN2c3ccccc3Sc3ccccc32)cc1F | 0.283 µM | 0.927 µM | 0.437 µM | > 100 µM |  |  | > 47.1 µM | > 100 µM | 0.964 µM | > 100 µM | > 55 µM | > 100 µM | 0.463 µM | > 100 µM | 0.257 µM | 98.8 µM | 0.36 µM | > 42.7 µM | > 100 µM | 1.12 µM
6 | CCC(=O)C1=C(OC(C)=O)C2Cc3c(n(C)c4ccccc34)C(C1)N2C (stereo unspecified) |  | > 100 µM |  | 85.1 µM |  | 53 µM |  | > 100 µM |  | > 100 µM |  | > 100 µM |  | > 100 µM |  | > 100 µM |  | > 100 µM | > 100 µM | 
7 | CC1=C(N2CC2)C(=O)C(CO)=C(N2CC2)C1=O | 0.0158 µM | 0.041 µM and 0.22 µM | 0.00728 µM | 0.0392 µM and 0.336 µM | 0.000498 µM | 0.0104 µM |  | 0.166 µM | 0.195 µM | 0.904 µM and 0.587 µM |  | 0.228 µM | 0.0025 µM |  |  | 0.38 µM |  | > 49 µM | 0.0231 µM and 0.0319 µM | 0.00512 µM
8 | COc1cc2cc3c4c(cc(OC)c(OC)c4c2cc1OC)CCN3C(=O)CCCC(=O)O |  | > 100 µM |  | > 100 µM |  | > 100 µM |  | > 100 µM |  | > 100 µM |  | > 100 µM |  | > 100 µM |  |  |  | > 100 µM | > 100 µM | 
